Test results taken from BindingDB's records for doi:10.1016/j.ejmech.2020.112034 (Shiv Nadar University, 2020).

What was measured:
Maltase-glucoamylase [1] = target: T1, Maltase-glucoamylase (Homo sapiens, UniProt O43451); test: Mixed type inhibition of alpha-glucosidase (unknown origin) using p-nitrophenyl-alpha-D glucopyranoside as substrate incubated for 30 mins by Lineweaver-Burk plot analysis
Maltase-glucoamylase [2] = target: T1, Maltase-glucoamylase; test: Non-competitive inhibition of alpha-glucosidase (unknown origin) using p-nitrophenyl-alpha-D glucopyranoside as substrate incubated for 30 mins by Lineweaver-Burk plot analysis

T1 sequence (O43451 whole entry): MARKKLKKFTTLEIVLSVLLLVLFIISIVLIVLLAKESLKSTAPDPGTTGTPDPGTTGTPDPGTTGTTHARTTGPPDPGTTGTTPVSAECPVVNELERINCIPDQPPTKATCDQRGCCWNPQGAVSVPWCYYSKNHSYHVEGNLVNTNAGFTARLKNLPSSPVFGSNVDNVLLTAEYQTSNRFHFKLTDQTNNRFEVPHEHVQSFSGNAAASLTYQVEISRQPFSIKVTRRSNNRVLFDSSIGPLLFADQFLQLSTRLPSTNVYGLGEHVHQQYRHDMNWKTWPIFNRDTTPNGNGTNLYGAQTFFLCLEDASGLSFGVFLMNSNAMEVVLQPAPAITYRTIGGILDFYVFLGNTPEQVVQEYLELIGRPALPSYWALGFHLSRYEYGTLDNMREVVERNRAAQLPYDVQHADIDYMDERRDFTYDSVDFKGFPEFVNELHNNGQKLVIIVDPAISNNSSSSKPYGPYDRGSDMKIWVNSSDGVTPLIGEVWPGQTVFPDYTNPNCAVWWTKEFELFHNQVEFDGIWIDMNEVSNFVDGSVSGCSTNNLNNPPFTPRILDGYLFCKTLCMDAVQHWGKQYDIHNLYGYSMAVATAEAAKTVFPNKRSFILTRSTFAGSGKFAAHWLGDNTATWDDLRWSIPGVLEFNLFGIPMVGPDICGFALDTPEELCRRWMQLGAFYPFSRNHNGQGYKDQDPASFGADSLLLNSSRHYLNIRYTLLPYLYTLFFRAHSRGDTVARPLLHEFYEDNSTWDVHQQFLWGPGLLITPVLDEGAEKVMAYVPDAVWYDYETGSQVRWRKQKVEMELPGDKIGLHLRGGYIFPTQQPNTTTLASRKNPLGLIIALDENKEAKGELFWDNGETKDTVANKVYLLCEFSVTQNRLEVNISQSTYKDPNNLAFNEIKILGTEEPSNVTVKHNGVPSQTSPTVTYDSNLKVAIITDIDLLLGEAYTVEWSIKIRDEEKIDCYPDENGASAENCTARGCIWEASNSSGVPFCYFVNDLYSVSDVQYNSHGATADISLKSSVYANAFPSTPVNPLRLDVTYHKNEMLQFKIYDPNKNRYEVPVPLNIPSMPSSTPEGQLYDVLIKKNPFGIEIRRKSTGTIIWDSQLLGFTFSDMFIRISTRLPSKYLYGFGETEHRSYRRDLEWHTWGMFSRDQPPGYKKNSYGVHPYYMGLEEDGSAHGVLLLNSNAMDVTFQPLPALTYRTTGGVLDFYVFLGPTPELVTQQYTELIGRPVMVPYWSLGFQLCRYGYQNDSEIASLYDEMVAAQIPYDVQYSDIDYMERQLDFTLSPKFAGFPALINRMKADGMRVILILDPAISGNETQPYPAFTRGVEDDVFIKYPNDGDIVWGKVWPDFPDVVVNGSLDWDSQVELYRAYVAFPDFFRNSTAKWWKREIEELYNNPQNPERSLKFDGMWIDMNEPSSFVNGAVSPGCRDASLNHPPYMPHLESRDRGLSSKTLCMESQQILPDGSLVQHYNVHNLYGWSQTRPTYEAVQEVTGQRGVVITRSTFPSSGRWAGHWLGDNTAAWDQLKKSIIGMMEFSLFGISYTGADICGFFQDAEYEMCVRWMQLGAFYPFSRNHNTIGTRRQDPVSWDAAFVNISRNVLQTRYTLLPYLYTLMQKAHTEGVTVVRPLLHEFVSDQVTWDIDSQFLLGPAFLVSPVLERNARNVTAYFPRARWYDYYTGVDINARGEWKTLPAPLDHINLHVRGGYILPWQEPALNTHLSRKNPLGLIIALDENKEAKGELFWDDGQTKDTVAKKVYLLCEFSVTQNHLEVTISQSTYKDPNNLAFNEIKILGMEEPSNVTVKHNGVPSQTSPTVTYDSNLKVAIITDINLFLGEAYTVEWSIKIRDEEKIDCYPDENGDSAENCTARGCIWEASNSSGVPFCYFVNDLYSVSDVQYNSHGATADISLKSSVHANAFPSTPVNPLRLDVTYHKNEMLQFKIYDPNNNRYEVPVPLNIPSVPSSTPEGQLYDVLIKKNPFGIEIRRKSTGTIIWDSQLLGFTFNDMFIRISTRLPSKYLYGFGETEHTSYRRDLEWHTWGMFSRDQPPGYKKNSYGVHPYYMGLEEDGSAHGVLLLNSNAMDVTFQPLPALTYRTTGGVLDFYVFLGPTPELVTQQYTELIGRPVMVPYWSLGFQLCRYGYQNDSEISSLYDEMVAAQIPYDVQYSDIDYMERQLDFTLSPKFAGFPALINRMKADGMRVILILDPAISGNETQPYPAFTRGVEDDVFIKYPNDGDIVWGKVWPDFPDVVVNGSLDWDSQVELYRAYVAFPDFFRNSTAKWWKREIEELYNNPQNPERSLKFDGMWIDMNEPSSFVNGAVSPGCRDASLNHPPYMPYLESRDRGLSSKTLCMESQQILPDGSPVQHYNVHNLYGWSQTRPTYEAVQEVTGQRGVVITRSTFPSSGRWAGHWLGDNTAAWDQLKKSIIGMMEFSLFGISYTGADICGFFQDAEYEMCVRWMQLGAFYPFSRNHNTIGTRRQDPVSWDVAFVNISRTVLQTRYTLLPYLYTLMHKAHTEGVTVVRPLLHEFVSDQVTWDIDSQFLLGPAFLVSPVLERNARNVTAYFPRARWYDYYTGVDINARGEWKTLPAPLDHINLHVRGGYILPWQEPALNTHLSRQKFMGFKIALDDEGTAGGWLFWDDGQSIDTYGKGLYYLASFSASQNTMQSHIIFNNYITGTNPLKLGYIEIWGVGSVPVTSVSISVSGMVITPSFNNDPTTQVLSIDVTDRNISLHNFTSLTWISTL

Row | Ki (Maltase-glucoamylase [1]) | Ki (Maltase-glucoamylase [2]) | SMILES
1 | 2.3 µM |  | CC(C)=CCc1cc(-c2oc3cc(O)c(CC=C(C)C)c(O)c3c(=O)c2O)cc(O)c1O [CHEBI:66727]
2 |  | 5.3 µM | CC(C)=CCc1cc(C(=O)/C=C/c2ccc(O)c(O)c2)c(O)cc1O [broussochalcone A]
